From patent publication US9474790B2, “Stable, protracted GLP-1/glucagon receptor co-agonists for medical use” (Novo Nordisk A/S, priority 2013, dated 2016)
Numbered stars: 1 amine (or outer) side, 2 acyl side, 3 side chain; on linkers, the order of the positions; unused ones are H or OH. Square brackets hold non-standard residues; d marks the D form. Side chains are listed from the residue outwards. Peptide text beside a SMILES is read from it. * marks the point of attachment. C18 diacid = O=C(O)CCCCCCCCCCCCCCCCC(=O)*; γGlu = O=C(O)[C@H](CCC(=O)[*:2])N[*:1]; AEEA = NCCOCCOCC(=O)O; Aib = CC(C)(N)C(=O)O

Key:
human GLP-1 receptor = target: T1, human GLP-1 receptor (Homo sapiens, UniProt P43220); assay: GLP-1 receptor potency, CRE luciferase reporter gene assay in BHK cells; assay type: cell-based; conditions: BHK cells expressing human GLP-1 receptor, read-out: EC50 GLP-1R
T1 construct: expressed in transfected cells; host or cells: BHK cells (parent BHKTS13), clone FCW467-12A/KZ10-1, with CRE luciferase
Method in brief: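 Potency as cAMP-driven firefly luciferase signal after 3 h, 37° C exposure to 10-fold dilutions (final 1×10EE-13–1×10EE-6 M). Stable hGLP-1R/CRE-luc BHK clone, 5×10EE3 cells/well, medium containing 2% ovalbumin and 0.2% Pluronic F-68; EC50 (pM) from variable-slope non-linear regression.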

[1] = Chemical stability assessment by RP-UPLC; assay type: physicochemical; conditions: 333 μM, 8 mM phosphate buffer pH 7.3, 37° C. vs 5° C.
Method in brief: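 Purity loss = (purity after 14 days at 5° C. minus that at 37° C.) relative to the 5° C. value, purity being main-peak area % by RP-UPLC with UV at 215 nm. Samples were 333 μM in 8 mM phosphate, pH 7.3; gradient adjusted for outlying retention times.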

T1 sequence (P43220 24-463): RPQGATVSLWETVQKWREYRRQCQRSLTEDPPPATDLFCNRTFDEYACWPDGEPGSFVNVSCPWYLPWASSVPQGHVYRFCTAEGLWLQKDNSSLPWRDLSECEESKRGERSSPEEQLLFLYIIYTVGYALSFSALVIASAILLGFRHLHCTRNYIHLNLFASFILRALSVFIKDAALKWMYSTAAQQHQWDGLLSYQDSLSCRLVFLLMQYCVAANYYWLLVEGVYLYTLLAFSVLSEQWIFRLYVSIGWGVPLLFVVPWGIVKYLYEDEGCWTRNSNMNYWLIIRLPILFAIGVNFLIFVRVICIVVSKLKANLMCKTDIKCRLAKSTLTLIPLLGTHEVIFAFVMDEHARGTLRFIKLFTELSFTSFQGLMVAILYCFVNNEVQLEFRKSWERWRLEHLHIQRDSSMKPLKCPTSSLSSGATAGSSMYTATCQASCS

Row | SMILES | EC50 (human GLP-1 receptor) [pM] | Purity loss; 14 days at 37° C. [1] [%]
1 | CC(C)C[C@H](NC(=O)[C@H](CC(C)C)NC(=O)[C@H](Cc1c[nH]c2ccccc12)NC(=O)[C@H](CCC(N)=O)NC(=O)[C@@H](NC(=O)[C@H](Cc1ccccc1)NC(=O)[C@H](CCC(=O)O)NC(=O)[C@H](CCCNC(=N)N)NC(=O)[C@H](C)NC(=O)[C@H](CCCNC(=N)N)NC(=O)[C@H](CCCNC(=N)N)NC(=O)[C@H](CO)NC(=O)[C@H](CC(=O)O)NC(=O)[C@H](CC(C)C)NC(=O)[C@H](Cc1ccc(O)cc1)NC(=O)[C@H](CCCCN)NC(=O)[C@H](CO)NC(=O)[C@H](CC(C)C)NC(=O)[C@H](CC(=O)O)NC(=O)[C@H](CO)NC(=O)[C@@H](NC(=O)[C@H](Cc1ccccc1)NC(=O)[C@@H](NC(=O)CNC(=O)[C@H](CCC(N)=O)NC(=O)C(C)(C)NC(=O)[C@@H](N)Cc1c[nH]cn1)[C@@H](C)O)[C@@H](C)O)C(C)C)C(=O)N[C@@H](CC(N)=O)C(=O)N[C@@H](CCCCNC(=O)CC[C@H](NC(=O)CC[C@H](NC(=O)COCCOCCNC(=O)COCCOCCNC(=O)CC[C@H](NC(=O)CCCCCCCCCCCCCCCCC(=O)O)C(=O)O)C(=O)O)C(=O)O)C(N)=O [Example 12, N^ε29-[(4S)-4-carboxy-4-[[(4S)-4-carboxy-4-[[2-[2-[2-[[2-[2-[2-[[(4S)-4-carboxy-4-(17-carboxyheptadecanoylamino)butanoyl]amino]ethoxy]ethoxy]acetyl]amino]ethoxy]ethoxy]acetyl]amino]butanoyl]amino]butanoyl]-[Aib2,Leu10,Arg20,Glu21,Leu27,Lys29]-Glucagon amide] (H-H[Aib]QGTFTSDLSKYLDSRRAREFVQWLLNK([γGlu-γGlu-AEEA-AEEA-γGlu-C18 diacid])-NH2) | 14.7 | 8
2 | CC(C)C[C@H](NC(=O)[C@H](Cc1ccc(O)cc1)NC(=O)[C@H](CCCCN)NC(=O)[C@H](CO)NC(=O)[C@H](CC(C)C)NC(=O)[C@H](CC(=O)O)NC(=O)[C@H](CO)NC(=O)[C@@H](NC(=O)[C@H](Cc1ccccc1)NC(=O)[C@@H](NC(=O)CNC(=O)[C@H](CCC(N)=O)NC(=O)C(C)(C)NC(=O)[C@@H](N)Cc1c[nH]cn1)[C@@H](C)O)[C@@H](C)O)C(=O)N[C@@H](CCC(=O)O)C(=O)N[C@@H](CO)C(=O)N[C@@H](CCCNC(=N)N)C(=O)N[C@@H](CCCNC(=N)N)C(=O)N[C@@H](C)C(=O)N[C@@H](CCCNC(=N)N)C(=O)N[C@@H](CCC(=O)O)C(=O)N[C@@H](Cc1ccccc1)C(=O)N[C@H](C(=O)N[C@@H](CCC(N)=O)C(=O)N[C@@H](Cc1c[nH]c2ccccc12)C(=O)N[C@@H](CC(C)C)C(=O)N[C@@H](CC(C)C)C(=O)N[C@@H](CCCCNC(=O)CC[C@H](NC(=O)CC[C@H](NC(=O)COCCOCCNC(=O)COCCOCCNC(=O)CC[C@H](NC(=O)CCCCCCCCCCCCCCCCC(=O)O)C(=O)O)C(=O)O)C(=O)O)C(=O)N[C@H](C(N)=O)[C@@H](C)O)C(C)C [Example 23, N^ε28-[(4S)-4-carboxy-4-[[(4S)-4-carboxy-4-[[2-[2-[2-[[2-[2-[2-[[(4S)-4-carboxy-4-(17-carboxyheptadecanoylamino)butanoyl]amino]ethoxy]ethoxy]acetyl]amino]ethoxy]ethoxy]acetyl]amino]butanoyl]amino]butanoyl]-[Aib2,Leu10,Glu15,Arg20,Glu21,Leu27,Lys28]-Glucagon amide] (H-H[Aib]QGTFTSDLSKYLESRRAREFVQWLLK([γGlu-γGlu-AEEA-AEEA-γGlu-C18 diacid])T-NH2; N-terminus assumed) | 22.1 | 2
3 | CC(C)C[C@H](NC(=O)[C@H](Cc1ccc(O)cc1)NC(=O)[C@H](CCCCN)NC(=O)[C@H](CO)NC(=O)[C@H](CC(C)C)NC(=O)[C@H](CC(=O)O)NC(=O)[C@H](CO)NC(=O)[C@@H](NC(=O)[C@H](Cc1ccccc1)NC(=O)[C@@H](NC(=O)CNC(=O)[C@H](Cc1c[nH]cn1)NC(=O)C(C)(C)NC(=O)[C@@H](N)Cc1c[nH]cn1)[C@@H](C)O)[C@@H](C)O)C(=O)N[C@@H](CCC(=O)O)C(=O)N[C@@H](CO)C(=O)N[C@@H](CCCCN)C(=O)N[C@@H](CCCNC(=N)N)C(=O)N[C@@H](C)C(=O)N[C@@H](CCCNC(=N)N)C(=O)N[C@@H](CCC(=O)O)C(=O)N[C@@H](Cc1ccccc1)C(=O)N[C@H](C(=O)N[C@@H](CCC(N)=O)C(=O)N[C@@H](Cc1c[nH]c2ccccc12)C(=O)N[C@@H](CC(C)C)C(=O)N[C@@H](CC(C)C)C(=O)N[C@@H](CCCCNC(=O)CC[C@H](NC(=O)CC[C@H](NC(=O)COCCOCCNC(=O)COCCOCCNC(=O)CC[C@H](NC(=O)CCCCCCCCCCCCCCCCC(=O)O)C(=O)O)C(=O)O)C(=O)O)C(=O)N[C@H](C(N)=O)[C@@H](C)O)C(C)C [Example 27, N^ε28-[(4S)-4-carboxy-4-[[(4S)-4-carboxy-4-[[2-[2-[2-[[2-[2-[2-[[(4S)-4-carboxy-4-(17-carboxyheptadecanoylamino)butanoyl]amino]ethoxy]ethoxy]acetyl]amino]ethoxy]ethoxy]acetyl]amino]butanoyl]amino]butanoyl]-[Aib2,His3,Leu10,Glu15,Lys17,Arg20,Glu21,Leu27, Lys28]-Glucagon amide] (H-H[Aib]HGTFTSDLSKYLESKRAREFVQWLLK([γGlu-γGlu-AEEA-AEEA-γGlu-C18 diacid])T-NH2; N-terminus assumed) | 4.1 | 5
4 | CC(C)C[C@H](NC(=O)[C@H](Cc1ccc(O)cc1)NC(=O)[C@H](CCCCN)NC(=O)[C@H](CO)NC(=O)[C@H](CC(C)C)NC(=O)[C@H](CC(=O)O)NC(=O)[C@H](CO)NC(=O)[C@@H](NC(=O)[C@H](Cc1ccccc1)NC(=O)[C@@H](NC(=O)CNC(=O)[C@H](Cc1c[nH]cn1)NC(=O)C(C)(C)NC(=O)[C@@H](N)Cc1c[nH]cn1)[C@@H](C)O)[C@@H](C)O)C(=O)N[C@@H](CCC(=O)O)C(=O)N[C@@H](CO)C(=O)N[C@@H](CCCCN)C(=O)N[C@@H](CCCNC(=N)N)C(=O)N[C@@H](C)C(=O)N[C@@H](CCCNC(=N)N)C(=O)N[C@@H](CCC(=O)O)C(=O)N[C@@H](Cc1ccccc1)C(=O)N[C@H](C(=O)N[C@@H](CCC(N)=O)C(=O)N[C@@H](Cc1c[nH]c2ccccc12)C(=O)N[C@@H](CC(C)C)C(=O)N[C@@H](CC(C)C)C(=O)N[C@@H](CCCCNC(=O)CC[C@H](NC(=O)CC[C@H](NC(=O)CC[C@H](NC(=O)CCCCCCCCCCCCCCCCC(=O)O)C(=O)O)C(=O)O)C(=O)O)C(=O)N[C@H](C(N)=O)[C@@H](C)O)C(C)C [Example 34, N^ε28-[(4S)-4-carboxy-4-[[(4S)-4-carboxy-4-[[(4S)-4-carboxy-4-(17-carboxyheptadecanoylamino)butanoyl]amino]butanoyl]amino]butanoyl]-[Aib2,His3,Leu10,Glu15,Lys17,Arg20,Glu21,Leu27,Lys28]-Glucagon amide] (H-H[Aib]HGTFTSDLSKYLESKRAREFVQWLLK([γGlu-γGlu-γGlu-C18 diacid])T-NH2; N-terminus assumed) | 14.7 | 5
5 | CC(C)C[C@H](NC(=O)[C@H](Cc1ccc(O)cc1)NC(=O)[C@H](CCCCN)NC(=O)[C@H](CO)NC(=O)[C@H](CC(C)C)NC(=O)[C@H](CC(=O)O)NC(=O)[C@H](CO)NC(=O)[C@@H](NC(=O)[C@H](Cc1ccccc1)NC(=O)[C@@H](NC(=O)CNC(=O)[C@H](CCC(N)=O)NC(=O)C(C)(C)NC(=O)[C@@H](N)Cc1c[nH]cn1)[C@@H](C)O)[C@@H](C)O)C(=O)N[C@@H](CC(=O)O)C(=O)N[C@@H](CO)C(=O)N[C@@H](CCCNC(=N)N)C(=O)N[C@@H](CCCNC(=N)N)C(=O)N[C@@H](C)C(=O)N[C@@H](CCCNC(=N)N)C(=O)N[C@@H](CCC(=O)O)C(=O)N[C@@H](Cc1ccccc1)C(=O)N[C@H](C(=O)N[C@@H](CCC(N)=O)C(=O)N[C@@H](Cc1c[nH]c2ccccc12)C(=O)N[C@@H](CC(C)C)C(=O)N[C@@H](CC(C)C)C(=O)N[C@@H](CCCCNC(=O)CC[C@H](NC(=O)CC[C@H](NC(=O)COCCOCCNC(=O)COCCOCCNC(=O)CC[C@H](NC(=O)CCCCCCCCCCCCCCCCC(=O)O)C(=O)O)C(=O)O)C(=O)O)C(=O)N[C@H](C(N)=O)[C@@H](C)O)C(C)C [Example 56, N^ε28-[(4S)-4-carboxy-4-[[(4S)-4-carboxy-4-[[2-[2-[2-[[2-[2-[2-[[(4S)-4-carboxy-4-(17-carboxyheptadecanoylamino)butanoyl]amino]ethoxy]ethoxy]acetyl]amino]ethoxy]ethoxy]acetyl]amino]butanoyl]amino]butanoyl]-[Aib2,Leu10,Arg20,Glu21,Leu27,Lys28]-Glucagon amide] (H-H[Aib]QGTFTSDLSKYLDSRRAREFVQWLLK([γGlu-γGlu-AEEA-AEEA-γGlu-C18 diacid])T-NH2) |  | 4
